{"source": "patent US20040082635A1", "about": "“Fused cyclic compounds and medicinal use thereof” (priority 2001, published 2004)", "note": "Structures can show the parent of a compound that is named as a salt.", "data": [{"target": "T1, HCV polymerase (Hepatitis C virus genotype 1b, UniProt P26663)", "T1 construct": "a region encoding NS5B (591 amino acids; J Virol 1991 Mar, 65(3), 1105-13) was amplified by PCR; 6 His (N); made in house; host or cells: Escherichia coli", "T1 sequence (P26663 2420-3010)": "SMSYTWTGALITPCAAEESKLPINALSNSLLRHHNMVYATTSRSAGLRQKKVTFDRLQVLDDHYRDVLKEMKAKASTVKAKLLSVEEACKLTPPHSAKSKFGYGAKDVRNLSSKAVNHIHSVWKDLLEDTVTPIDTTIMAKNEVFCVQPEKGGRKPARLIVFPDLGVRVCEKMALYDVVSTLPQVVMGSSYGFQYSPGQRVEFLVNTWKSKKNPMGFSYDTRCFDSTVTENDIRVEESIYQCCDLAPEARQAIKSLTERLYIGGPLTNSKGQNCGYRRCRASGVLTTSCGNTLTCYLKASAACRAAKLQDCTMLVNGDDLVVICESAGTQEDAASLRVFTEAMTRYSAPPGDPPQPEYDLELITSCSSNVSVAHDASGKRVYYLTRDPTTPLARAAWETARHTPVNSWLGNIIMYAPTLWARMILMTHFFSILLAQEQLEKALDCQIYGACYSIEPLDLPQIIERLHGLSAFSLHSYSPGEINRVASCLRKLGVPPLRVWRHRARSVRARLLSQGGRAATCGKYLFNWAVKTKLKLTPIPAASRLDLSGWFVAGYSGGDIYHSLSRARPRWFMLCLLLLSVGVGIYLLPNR", "experiment": "biochemical", "conditions": "read-out: HCV polymerase inhibitory activity IC50", "units": {"IC50": "nM"}, "values": [{"compound": "N/C(=N\\O)c1ccc(-c2ccc(Cl)cc2)c(COc2ccc(-c3nc4cc(C(=O)O)ccc4n3C3CCCCC3)c(F)c2)c1", "note": "[Example 373, 2-{4-[2-(4-chlorophenyl)-5-(N-hydroxyamidino)benzyloxy]-2-fluorophenyl}-1-cyclohexylbenzimidazole-5-carboxylic acid dihydrochloride]", "IC50": 13}, {"compound": "O=C(O)c1ccc2c(c1)nc(-c1ccc(OCc3cc(-c4noc(=O)[nH]4)ccc3-c3ccc(Cl)cc3)cc1F)n2C1CCCCC1", "note": "[Example 374, 2-{4-[2-(4-chlorophenyl)-5-(2,5-dihydro-5-oxo-4H-1,2,4-oxadiazol-3-yl)benzyloxy]-2-fluorophenyl}-1-cyclohexylbenzimidazole-5-carboxylic acid hydrochloride]", "IC50": 13}, {"compound": "O=C(O)c1ccc2c(c1)nc(-c1ccc(OCc3cc(C4=NOS(=O)N4)ccc3-c3ccc(Cl)cc3)cc1F)n2C1CCCCC1", "note": "(centres unmarked) [Example 375, 2-{4-[2-(4-chlorophenyl)-5-(2-oxo-3H-1,2,3,5-oxathiadiazol-4-yl)benzyloxy]-2-fluorophenyl}-1-cyclohexylbenzimidazole-5carboxylic acid hydrochloride]", "IC50": 12}, {"compound": "O=C(O)c1ccc2c(c1)nc(-c1ccc(OCc3cc(-c4nsc(=O)[nH]4)ccc3-c3ccc(Cl)cc3)cc1F)n2C1CCCCC1", "note": "[Example 376, 2-{4-[2-(4-chlorophenyl)-5-(2,5-dihydro-5-oxo-4H-1,2,4-thiadiazol-3-yl)benzyloxy]-2-fluorophenyl}-1-cyclohexylbenzimidazole-5-carboxylic acid hydrochloride]", "IC50": 14}, {"compound": "O=C(O)c1ccc2c(c1)nc(-c1ccc(OCc3cc(C(=O)NC4CC4)ccc3-c3ccc(Cl)cc3)cc1F)n2C1CCCCC1", "note": "[Example 377, 2-{4-[2-(4-chlorophenyl)-5-(cyclopropylcarbamoyl)benzyloxy]-2-fluorophenyl}-1-cyclohexylbenzimidazole-5-carboxylic acid hydrochloride]", "IC50": 12}, {"compound": "O=C(O)c1ccc2c(c1)nc(-c1ccc(OCc3cc(C(=O)NC4CCC4)ccc3-c3ccc(Cl)cc3)cc1F)n2C1CCCCC1", "note": "[Example 378, 2-{4-[2-(4-chlorophenyl)-5-(cyclobutylcarbamoyl)benzyloxy]-2-fluorophenyl}-1-cyclohexylbenzimidazole-5-carboxylic acid hydrochloride]", "IC50": 18}, {"compound": "CC(C)(C)NC(=O)c1ccc(-c2ccc(Cl)cc2)c(COc2ccc(-c3nc4cc(C(=O)O)ccc4n3C3CCCCC3)c(F)c2)c1", "note": "[Example 379, 2-{4-[2-(4-chlorophenyl)-5-(tert-butylcarbamoyl)benzyloxy]-2-fluorophenyl}-1-cyclohexylbenzimidazole-5-carboxylic acid hydrochloride]", "IC50": 21}, {"compound": "CC(C)CNC(=O)c1ccc(-c2ccc(Cl)cc2)c(COc2ccc(-c3nc4cc(C(=O)O)ccc4n3C3CCCCC3)c(F)c2)c1", "note": "[Example 380, 2-{4-[2-(4-chlorophenyl)-5-(isobutylcarbamoyl)benzyloxy]-2-fluorophenyl}-1-cyclohexylbenzimidazole-5-carboxylic acid hydrochloride]", "IC50": 23}, {"compound": "CC(CO)NC(=O)c1ccc(-c2ccc(Cl)cc2)c(COc2ccc(-c3nc4cc(C(=O)O)ccc4n3C3CCCCC3)c(F)c2)c1", "note": "(centres unmarked) [Example 381, 2-{4-[2-(4-chlorophenyl)-5-{(1-hydroxypropan-2-yl)carbamoyl}-benzyloxy]-2-fluorophenyl}-1-cyclohexylbenzimidazole-5-carboxylic acid hydrochloride]", "IC50": 11}, {"compound": "CONC(=O)c1ccc(-c2ccc(Cl)cc2)c(COc2ccc(-c3nc4cc(C(=O)O)ccc4n3C3CCCCC3)c(F)c2)c1", "note": "[Example 382, 2-{4-[2-(4-chlorophenyl)-5-(methoxycarbamoyl)benzyloxy]-2-fluorophenyl}-1-cyclohexylbenzimidazole-5-carboxylic acid hydrochloride]", "IC50": 15}, {"compound": "O=C(O)c1ccc2c(c1)nc(-c1ccc(OCc3cc(C(=O)NCC(O)CO)ccc3-c3ccc(Cl)cc3)cc1F)n2C1CCCCC1", "note": "(centres unmarked) [Example 383, 2-{4-[2-(4-chlorophenyl)-5-{(2,3-dihydroxypropyl)carbamoyl}-benzyloxy]-2-fluorophenyl}-1-cyclohexylbenzimidazole-5-carboxylic acid hydrochloride]", "IC50": 13}, {"compound": "CCN(C)C(=O)c1ccc(-c2ccc(Cl)cc2)c(COc2ccc(-c3nc4cc(C(=O)O)ccc4n3C3CCCCC3)c(F)c2)c1", "note": "[Example 384, 2-{4-[2-(4-chlorophenyl)-5-(N-ethyl-N-methylcarbamoyl)benzyloxy]-2-fluorophenyl}-1-cyclohexylbenzimidazole-5-carboxylic acid hydrochloride]", "IC50": 16}, {"compound": "CCCN(C)C(=O)c1ccc(-c2ccc(Cl)cc2)c(COc2ccc(-c3nc4cc(C(=O)O)ccc4n3C3CCCCC3)c(F)c2)c1", "note": "[Example 385, 2-{4-[2-(4-chlorophenyl)-5-(N-methyl-N-propylcarbamoyl)-benzyloxy]-2-fluorophenyl}-1-cyclohexylbenzimidazole-5-carboxylic acid hydrochloride]", "IC50": 19}, {"compound": "CC(C)N(C)C(=O)c1ccc(-c2ccc(Cl)cc2)c(COc2ccc(-c3nc4cc(C(=O)O)ccc4n3C3CCCCC3)c(F)c2)c1", "note": "[Example 386, 2-{4-[2-(4-chlorophenyl)-5-(N-isopropyl-N-methylcarbamoyl)-benzyloxy]-2-fluorophenyl}-1-cyclohexylbenzimidazole-5-carboxylic acid hydrochloride]", "IC50": 18}, {"compound": "C[C@@H]1CCC[C@H](C)N1C(=O)c1ccc(-c2ccc(Cl)cc2)c(COc2ccc(-c3nc4cc(C(=O)O)ccc4n3C3CCCCC3)c(F)c2)c1", "note": "[Example 387, 2-{4-[2-(4-chlorophenyl)-5-(2,6-dimethylpiperidin-1-ylcarbonyl)-benzyloxy]-2-fluorophenyl}-1-cyclohexylbenzimidazole-5-carboxylic acid hydrochloride]", "IC50": 25}, {"compound": "CCCCNC(=O)c1ccc(-c2ccc(Cl)cc2)c(COc2ccc(-c3nc4cc(C(=O)O)ccc4n3C3CCCCC3)c(F)c2)c1", "note": "[Example 388, 2-{4-[5-(butylcarbamoyl)-2-(4-chlorophenyl)benzyloxy]-2-fluorophenyl}-1-cyclohexylbenzimidazole-5-carboxylic acid hydrochloride]", "IC50": 20}, {"compound": "CCCNC(=O)c1ccc(-c2ccc(Cl)cc2)c(COc2ccc(-c3nc4cc(C(=O)O)ccc4n3C3CCCCC3)c(F)c2)c1", "note": "[Example 389, 2-{4-[2-(4-chlorophenyl)-5-(propylcarbamoyl)benzyloxy]-2-fluorophenyl}-1-cyclohexylbenzimidazole-5-carboxylic acid hydrochloride]", "IC50": 12}, {"compound": "CCNC(=O)c1ccc(-c2ccc(Cl)cc2)c(COc2ccc(-c3nc4cc(C(=O)O)ccc4n3C3CCCCC3)c(F)c2)c1", "note": "[Example 390, 2-{4-[2-(4-chlorophenyl)-5-(ethylcarbamoyl)benzyloxy]-2-fluorophenyl}-1-cyclohexylbenzimidazole-5-carboxylic acid hydrochloride]", "IC50": 14}, {"compound": "CN(C)C(=O)Nc1ccc(-c2ccc(Cl)cc2)c(COc2ccc(-c3nc4cc(C(=O)O)ccc4n3C3CCCCC3)c(F)c2)c1", "note": "[Example 391, 2-{4-[2-(4-chlorophenyl)-5-{(dimethylcarbamoyl)amino}benzyloxy]-2-fluorophenyl}-1-cyclohexylbenzimidazole-5-carboxylic acid hydrochloride]", "IC50": 17}, {"compound": "O=C(O)c1ccc2c(c1)nc(-c1ccc(OCc3cc(NC(=O)N4CCOCC4)ccc3-c3ccc(Cl)cc3)cc1F)n2C1CCCCC1", "note": "[Example 392, 2-{4-[2-(4-chlorophenyl)-5-{(morpholinocarbonyl)amino}benzyloxy]-2-fluorophenyl}-1-cyclohexylbenzimidazole-5-carboxylic acid hydrochloride]", "IC50": 14}, {"compound": "NC(=O)Nc1ccc(-c2ccc(Cl)cc2)c(COc2ccc(-c3nc4cc(C(=O)O)ccc4n3C3CCCCC3)c(F)c2)c1", "note": "[Example 393, 2-{4-[2-(4-chlorophenyl)-5-ureidobenzyloxy]-2-fluorophenyl}-1-cyclohexylbenzimidazole-5-carboxylic acid hydrochloride]", "IC50": 11}, {"compound": "CCNC(=O)Nc1ccc(-c2ccc(Cl)cc2)c(COc2ccc(-c3nc4cc(C(=O)O)ccc4n3C3CCCCC3)c(F)c2)c1", "note": "[Example 394, 2-{4-[2-(4-chlorophenyl)-5-{(ethylcarbamoyl)amino}benzyloxy]-2-fluorophenyl}-1-cyclohexylbenzimidazole-5-carboxylic acid hydrochloride]", "IC50": 19}, {"compound": "CC(C)NC(=O)Nc1ccc(-c2ccc(Cl)cc2)c(COc2ccc(-c3nc4cc(C(=O)O)ccc4n3C3CCCCC3)c(F)c2)c1", "note": "[Example 395, 2-{4-[2-(4-chlorophenyl)-5-{(isopropylcarbamoyl)amino}benzyloxy]-2-fluorophenyl}-1-cyclohexylbenzimidazole-5-carboxylic acid hydrochloride]", "IC50": 16}, {"compound": "CC(C)NC(=O)c1ccc(-c2ccc(F)c(F)c2)c(COc2ccc(-c3nc4cc(C(=O)O)ccc4n3C3CCCCC3)c(F)c2)c1", "note": "[Example 396, 2-{4-[2-(3,4-difluorophenyl)-5-(isopropylcarbamoyl)benzyloxy]-2-fluorophenyl}-1-cyclohexylbenzimidazole-5-carboxylic acid]", "IC50": 25}, {"compound": "CC(C)NC(=O)c1ccc(-c2ccc(F)cc2F)c(COc2ccc(-c3nc4cc(C(=O)O)ccc4n3C3CCCCC3)c(F)c2)c1", "note": "[Example 397, 2-{4-[2-(2,4-difluorophenyl)-5-(isopropylcarbamoyl)benzyloxy]-2-fluorophenyl}-1-cyclohexylbenzimidazole-5-carboxylic acid hydrochloride]", "IC50": 37}, {"compound": "CC(C)NC(=O)c1ccc(-c2cc(Cl)cc(Cl)c2)c(COc2ccc(-c3nc4cc(C(=O)O)ccc4n3C3CCCCC3)c(F)c2)c1", "note": "[Example 398, 2-{4-[2-(3,5-dichlorophenyl)-5-(isopropylcarbamoyl)benzyloxy]-2-fluorophenyl}-1-cyclohexylbenzimidazole-5-carboxylic acid hydrochloride]", "IC50": 77}]}]}
